# Results taken from ChEMBL document CHEMBL4706766, “Novel Bromodomain BRD4 Inhibitors for Treating Cancer” (ACS Med Chem Lett, 2021).
# Key:
# [1] = biological target: T1, Bromodomain-containing protein 4 (Homo sapiens, UniProt O60885); test: Binding affinity to His-6 tagged BRD4 BD2 bromodomain (unknown origin) incubated for 10 mins by TR-FRET assay
# [2] = biological target: T1, Bromodomain-containing protein 4; test: Binding affinity to His-6 tagged BRD4 BD1 bromodomain (unknown origin) incubated for 10 mins by TR-FRET assay
structure (smiles),measurement,setting,value
COC(=O)c1cc2c(cc1CS(C)(=O)=O)-c1cn(C)c(=O)c3[nH]cc(c13)CN2c1ncc(C#CCN)cc1F,IC50,[1],3.7 nM
same,IC50,[2],3.3 nM
